Laboratory results published in US8066971B2, “Targeting pulmonary epithelium using ADRP” (Los Angeles Biomedical Reseach Institute at Harbor UCLA …, priority 2005, dated 2011).
Entries after “also recorded” stand apart in the source; their conditions may differ. Starred links: 1 amine or outer side, 2 acyl side, 3 side chain; linkers in the order of their positions; H or OH if unused. Positions of bridges follow the written chain, without caps; N, C: chain ends. Non-standard residues stand in square brackets, D forms with d. Residues, ends and D or L forms follow the SMILES beside them. Chains are numbered I, II in the order given. Actinocin(9to1) = Cc1c2oc3c(C)ccc(C(=O)[*:1])c3nc-2c(C(=O)[*:2])c(N)c1=O; NMeV = CN[C@H](C(=O)O)C(C)C; Sar = CNCC(=O)O

Key:
[1] = system: SP-B mRNA expression by A549 cells; experiment: SP-B mRNA expression by A549 cells (RT-PCR); format: cell-based; conditions: actinomycin D 1 μg/ml, concomitant incubation with LDs
Procedure: (§1) Monolayer cultures of A549 cells were incubated with ADRP-LDs labeled with either tritium or GFP as follows: ^3H-labeled (10,000 dpm/min/20 μg triacylglycerol) ADRP-LDs were isolated from fetal rat lung fibroblasts, as described above. Where indicated, incubations were carried out in the presence of either actinomycin D or cyclohexamide to determine if de novo mRNA or protein synthesis, respectively, was involved in LD processing. Elsewhere, incubations were conducted in the presence of ADRP antibody (rabbit anti-ADRP IgG kindly provided by Dr. Constantine Londos, NIDDK) to determine the specificity of the ADRP effect on LD uptake. At the end of the incubation, the cells were processed for ^3H-satPC (Floros et al. (1987) J Biol Chem. 262(28): 13592-13598), expression of SP-B by RT-PCR and Western Blot (Rehan et al. (2002) Mol Genet Metab. 76(1): 46-56), or for confocal microscopy (see below for method).
(§2) Western blot and RT-PCR for SP-B were performed as described by Rehan et al. (2002) Mol Genet Metab. 76(1): 46-56.

[2] = system: SP-B protein levels in A549 cells; experiment: SP-B protein levels in A549 cells (Western blot); format: cell-based; conditions: cycloheximide 5 :g/ml, concomitant with ADRP-LDs
Procedure: as §1, §2

Compound | effect on ADRP induction of SP-B mRNA expression [1] | effect on ADRP-LD-stimulated SP-B protein increase [2]
Cc1c2oc3c(C)ccc(C(=O)N[C@@H]4C(=O)N[C@H](C(C)C)C(=O)N5CCC[C@H]5C(=O)N(C)CC(=O)N(C)[C@@H](C(C)C)C(=O)O[C@@H]4C)c3nc-2c(C(=O)N[C@@H]2C(=O)N[C@H](C(C)C)C(=O)N3CCC[C@H]3C(=O)N(C)CC(=O)N(C)[C@@H](C(C)C)C(=O)O[C@@H]2C)c(N)c1=O [Actinomycin D] (I: T[dV]P[Sar][NMeV] / II: T[dV]P[Sar][NMeV]; ester I:1-I:C, II:1-II:C; linker I:N-II:N via Actinocin(9to1)) | blocked | –
C[C@@H]1C[C@@H]([C@H](O)CC2CC(=O)NC(=O)C2)C(=O)[C@@H](C)C1 [cycloheximide] | – | blocked; also recorded: inhibited
